Where two headings read alike, the source gives them in different places. Peptide text beside a SMILES is read from it.
Assays:
Type in all cases: biochemical
HDAC2 [1] = biological target: T1, HDAC2 (Homo sapiens, UniProt Q92769); test: HDAC2 inhibition, full IC50 measurement (Reaction Biology; fluorogenic p53 peptide RHKK(Ac)AMC)
T1 construct: purchased Reaction Biology Corporation (assay run by the CRO)
Procedure, shortened: (§1)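 Inhibitory peptides were acoustically dispensed with enzyme, then substrate added; 1 h at 30 °C. Developer stopped reaction; plateau endpoint fluorescence (360/460 nm) gave IC50.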

HDAC1 = biological target: T2, HDAC1 (Homo sapiens, UniProt Q13547); test: HDAC1 inhibition, full IC50 measurement (Reaction Biology; fluorogenic p53 peptide RHKK(Ac)AMC); details: t1/t2 replicates
T2 construct: purchased Reaction Biology Corporation (assay run by the CRO)
Procedure, shortened: as §1

HDAC8 = biological target: T3, HDAC8 (Homo sapiens, UniProt Q9BY41); test: HDAC8 inhibition, full IC50 measurement (Reaction Biology; fluorogenic p53 peptide RHKK(Ac)AMC); details: t1/t2 replicates
T3 construct: purchased Reaction Biology Corporation (assay run by the CRO)
T3 sequence (Q9BY41 1-377): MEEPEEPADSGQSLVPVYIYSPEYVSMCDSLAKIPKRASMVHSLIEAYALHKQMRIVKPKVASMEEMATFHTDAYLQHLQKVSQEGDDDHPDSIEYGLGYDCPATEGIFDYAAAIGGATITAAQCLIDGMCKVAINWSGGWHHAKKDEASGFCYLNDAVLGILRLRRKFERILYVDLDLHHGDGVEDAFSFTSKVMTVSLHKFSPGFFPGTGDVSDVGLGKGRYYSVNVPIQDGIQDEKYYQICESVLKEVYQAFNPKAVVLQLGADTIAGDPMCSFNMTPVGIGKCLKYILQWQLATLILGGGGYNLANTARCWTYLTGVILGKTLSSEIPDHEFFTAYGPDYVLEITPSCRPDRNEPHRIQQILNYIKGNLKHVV
Procedure, shortened: as §1

HDAC2 [2] = biological target: T1, HDAC2; test: Initial HDAC2 IC50 estimate (BPS Biosciences HDAC fluorogenic assay kit)
Procedure, shortened: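 Inhibition measured by kit-based fluorogenic HDAC activity assays, with each point in duplicate or triplicate. Values come from a full 1 µM–100 pM series (1:10 steps) or are range estimates from just 20 nM and 200 nM.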

[3] = peptide conc. 1.00E-05 M, listed as des1.1.1_t1
[4] = peptide conc. 1.00E-05 M, listed as des1.1.1_t2
[5] = peptide conc. 1.11E-06 M, listed as des1.1.1_t1
[6] = peptide conc. 1.11E-06 M, listed as des1.1.1_t2
[7] = peptide conc. 1.23E-07 M, listed as des1.1.1_t1
[8] = peptide conc. 1.23E-07 M, listed as des1.1.1_t2
[9] = peptide conc. 1.37E-08 M, listed as des1.1.1_t1
[10] = peptide conc. 1.37E-08 M, listed as des1.1.1_t2
[11] = peptide conc. 1.52E-09 M, listed as des1.1.1_t1
[12] = peptide conc. 1.52E-09 M, listed as des1.1.1_t2
[13] = peptide conc. 3.33E-06 M, listed as des1.1.1_t1
[14] = peptide conc. 3.33E-06 M, listed as des1.1.1_t2
[15] = peptide conc. 3.70E-07 M, listed as des1.1.1_t1
[16] = peptide conc. 3.70E-07 M, listed as des1.1.1_t2
[17] = peptide conc. 4.12E-08 M, listed as des1.1.1_t1
[18] = peptide conc. 4.12E-08 M, listed as des1.1.1_t2
[19] = peptide conc. 4.57E-09 M, listed as des1.1.1_t1
[20] = peptide conc. 4.57E-09 M, listed as des1.1.1_t2
[21] = peptide conc. 5.08E-10 M, listed as des1.1.1_t1
[22] = peptide conc. 5.08E-10 M, listed as des1.1.1_t2

T2 sequence (Q13547 whole entry): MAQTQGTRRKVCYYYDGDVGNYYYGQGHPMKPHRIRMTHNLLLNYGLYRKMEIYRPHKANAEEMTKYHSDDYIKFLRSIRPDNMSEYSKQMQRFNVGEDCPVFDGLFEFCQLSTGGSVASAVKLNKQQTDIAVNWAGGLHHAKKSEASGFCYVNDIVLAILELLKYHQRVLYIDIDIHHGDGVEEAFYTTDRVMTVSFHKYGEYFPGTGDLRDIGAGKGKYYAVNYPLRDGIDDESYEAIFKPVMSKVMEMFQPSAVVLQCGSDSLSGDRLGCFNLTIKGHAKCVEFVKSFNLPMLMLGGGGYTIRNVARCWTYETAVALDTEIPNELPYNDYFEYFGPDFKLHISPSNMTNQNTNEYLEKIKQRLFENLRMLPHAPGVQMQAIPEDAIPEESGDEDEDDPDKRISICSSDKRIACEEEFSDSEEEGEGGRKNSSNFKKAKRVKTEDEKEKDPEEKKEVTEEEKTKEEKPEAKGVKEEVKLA
T1 sequence (Q92769 whole entry): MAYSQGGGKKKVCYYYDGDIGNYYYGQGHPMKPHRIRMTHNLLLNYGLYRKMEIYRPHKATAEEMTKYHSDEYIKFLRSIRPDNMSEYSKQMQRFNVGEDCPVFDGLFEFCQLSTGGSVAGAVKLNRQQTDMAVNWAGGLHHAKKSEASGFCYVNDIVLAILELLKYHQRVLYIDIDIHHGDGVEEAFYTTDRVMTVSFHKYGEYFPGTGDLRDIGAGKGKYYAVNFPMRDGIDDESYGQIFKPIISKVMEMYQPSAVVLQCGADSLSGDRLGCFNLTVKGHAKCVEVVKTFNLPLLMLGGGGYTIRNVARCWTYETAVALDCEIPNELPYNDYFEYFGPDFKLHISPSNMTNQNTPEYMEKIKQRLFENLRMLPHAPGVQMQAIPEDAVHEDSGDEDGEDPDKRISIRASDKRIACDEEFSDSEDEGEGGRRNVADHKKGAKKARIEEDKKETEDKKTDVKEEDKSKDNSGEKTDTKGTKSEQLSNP

NCCCC[C@H]1NC(=O)[C@H](CCC(N)=O)NC(=O)[C@H](CCC(=O)O)NC(=O)[C@@H]2CCCN2C(=O)[C@H](CC(N)=O)NC(=O)[C@H](CCCCCS)NC(=O)CNC(=O)[C@H](Cc2c[nH]c3ccccc23)NC1=O [des1.1.1, SHA-Asn-Pro-Glu-Gln-dLys-Trp-Gly] (HELM PEPTIDE1{E.Q.[dK].W.G.[O=C([C@H](CCCCCS)N[*:1])[*:2]].N.P}$PEPTIDE1,PEPTIDE1,1:R1-8:R2$$$V2.0)
2-Selectivity: fold potency for HDAC2 over HDAC6 (HDAC2 [1]): 0.17 fold | HDAC2 activity raw data (signal) (HDAC2 [1]; Conc. 1.00E-05 M, t1): 51389 | HDAC2 activity raw data (signal) (HDAC2 [1]; Conc. 1.11E-06 M, t1): 176321 | HDAC2 activity raw data (signal) (HDAC2 [1]; Conc. 1.23E-07 M, t1): 517115 | HDAC2 activity raw data (signal) (HDAC2 [1]; Conc. 1.23E-07 M, t2): 516299 | HDAC2 activity raw data (signal) (HDAC2 [1]; Conc. 1.37E-08 M, t1): 670648 | HDAC2 activity raw data (signal) (HDAC2 [1]; Conc. 1.37E-08 M, t2): 890041 | HDAC2 activity raw data (signal) (HDAC2 [1]; Conc. 1.52E-09 M, t1): 768698 | HDAC2 activity raw data (signal) (HDAC2 [1]; Conc. 1.52E-09 M, t2): 986775 | HDAC2 activity raw data (signal) (HDAC2 [1]; Conc. 3.33E-06 M, t1): 91275 | HDAC2 activity raw data (signal) (HDAC2 [1]; Conc. 3.70E-07 M, t1): 346891 | HDAC2 activity raw data (signal) (HDAC2 [1]; Conc. 4.12E-08 M, t1): 680634 | HDAC2 activity raw data (signal) (HDAC2 [1]; Conc. 4.12E-08 M, t2): 655155 | HDAC2 activity raw data (signal) (HDAC2 [1]; Conc. 4.57E-09 M, t1): 833526 | HDAC2 activity raw data (signal) (HDAC2 [1]; Conc. 4.57E-09 M, t2): 959526 | HDAC2 activity raw data (signal) (HDAC2 [1]; Conc. 5.08E-10 M, t1): 761364 | HDAC2 activity raw data (signal) (HDAC2 [1]; Conc. 5.08E-10 M, t2): 1054303 | HDAC1 activity raw data (signal) (HDAC1; [3]): 15449 | HDAC1 activity raw data (signal) (HDAC1; [4]): 6031 | HDAC1 activity raw data (signal) (HDAC1; [5]): 152129 | HDAC1 activity raw data (signal) (HDAC1; [6]): 83277 | HDAC1 activity raw data (signal) (HDAC1; [7]): 509662 | HDAC1 activity raw data (signal) (HDAC1; [8]): 396625 | HDAC1 activity raw data (signal) (HDAC1; [9]): 648866 | HDAC1 activity raw data (signal) (HDAC1; [10]): 876365 | HDAC1 activity raw data (signal) (HDAC1; [11]): 760286 | HDAC1 activity raw data (signal) (HDAC1; [12]): 1050479 | HDAC1 activity raw data (signal) (HDAC1; [13]): 53777 | HDAC1 activity raw data (signal) (HDAC1; [14]): 31360 | HDAC1 activity raw data (signal) (HDAC1; [15]): 243491 | HDAC1 activity raw data (signal) (HDAC1; [16]): 191722 | HDAC1 activity raw data (signal) (HDAC1; [17]): 677146 | HDAC1 activity raw data (signal) (HDAC1; [18]): 657201 | HDAC1 activity raw data (signal) (HDAC1; [19]): 723834 | HDAC1 activity raw data (signal) (HDAC1; [20]): 981941 | HDAC1 activity raw data (signal) (HDAC1; [21]): 712167 | HDAC1 activity raw data (signal) (HDAC1; [22]): 1083035 | HDAC8 activity raw data (signal) (HDAC8; [3]): 258617 | HDAC8 activity raw data (signal) (HDAC8; [4]): 8333740 | HDAC8 activity raw data (signal) (HDAC8; [5]): 532680 | HDAC8 activity raw data (signal) (HDAC8; [6]): 26455057 | HDAC8 activity raw data (signal) (HDAC8; [7]): 587120 | HDAC8 activity raw data (signal) (HDAC8; [8]): 38904462 | HDAC8 activity raw data (signal) (HDAC8; [9]): 802422 | HDAC8 activity raw data (signal) (HDAC8; [10]): 44804049 | HDAC8 activity raw data (signal) (HDAC8; [11]): 956971 | HDAC8 activity raw data (signal) (HDAC8; [12]): 49754188 | HDAC8 activity raw data (signal) (HDAC8; [13]): 289575 | HDAC8 activity raw data (signal) (HDAC8; [14]): 18105294 | HDAC8 activity raw data (signal) (HDAC8; [15]): 559845 | HDAC8 activity raw data (signal) (HDAC8; [16]): 34440414 | HDAC8 activity raw data (signal) (HDAC8; [17]): 916202 | HDAC8 activity raw data (signal) (HDAC8; [18]): 43441318 | HDAC8 activity raw data (signal) (HDAC8; [19]): 928568 | HDAC8 activity raw data (signal) (HDAC8; [20]): 47580068 | HDAC8 activity raw data (signal) (HDAC8; [21]): 688133 | HDAC8 activity raw data (signal) (HDAC8; [22]): 50930211 | IC50 (HDAC2 [2]; Supp. Table 4, rough estimates, for promising hits full measurements, read-out: HDAC2 activity (initial values for HDAC2 IC50)): 192 nM | IC50 (HDAC2 [2]; Supplementary Dataset 2, read-out: HDAC2 activity (initial activity)): 271 nM

Source: paper PMC8185074, “Anchor extension: a structure-guided approach to design cyclic peptides targeting enzyme active sites” (Nature Communications, 2021)
